Literature values, collected in patent US6001802A, “Platelet-derived growth factor analogues” (Trigen Limited, priority 1993, dated 1999).
Where no end group is shown, it is not given here.

Columns and labels:
[1] = test system: smooth muscle cells of injured arteries; details: administration of PDGF, rat angioplasty model [19]
[2] = target: PDGF β-receptors (Homo sapiens, UniProt P09619); details: reference [6]
Chain of PDGF β-receptors (P09619 33-1106): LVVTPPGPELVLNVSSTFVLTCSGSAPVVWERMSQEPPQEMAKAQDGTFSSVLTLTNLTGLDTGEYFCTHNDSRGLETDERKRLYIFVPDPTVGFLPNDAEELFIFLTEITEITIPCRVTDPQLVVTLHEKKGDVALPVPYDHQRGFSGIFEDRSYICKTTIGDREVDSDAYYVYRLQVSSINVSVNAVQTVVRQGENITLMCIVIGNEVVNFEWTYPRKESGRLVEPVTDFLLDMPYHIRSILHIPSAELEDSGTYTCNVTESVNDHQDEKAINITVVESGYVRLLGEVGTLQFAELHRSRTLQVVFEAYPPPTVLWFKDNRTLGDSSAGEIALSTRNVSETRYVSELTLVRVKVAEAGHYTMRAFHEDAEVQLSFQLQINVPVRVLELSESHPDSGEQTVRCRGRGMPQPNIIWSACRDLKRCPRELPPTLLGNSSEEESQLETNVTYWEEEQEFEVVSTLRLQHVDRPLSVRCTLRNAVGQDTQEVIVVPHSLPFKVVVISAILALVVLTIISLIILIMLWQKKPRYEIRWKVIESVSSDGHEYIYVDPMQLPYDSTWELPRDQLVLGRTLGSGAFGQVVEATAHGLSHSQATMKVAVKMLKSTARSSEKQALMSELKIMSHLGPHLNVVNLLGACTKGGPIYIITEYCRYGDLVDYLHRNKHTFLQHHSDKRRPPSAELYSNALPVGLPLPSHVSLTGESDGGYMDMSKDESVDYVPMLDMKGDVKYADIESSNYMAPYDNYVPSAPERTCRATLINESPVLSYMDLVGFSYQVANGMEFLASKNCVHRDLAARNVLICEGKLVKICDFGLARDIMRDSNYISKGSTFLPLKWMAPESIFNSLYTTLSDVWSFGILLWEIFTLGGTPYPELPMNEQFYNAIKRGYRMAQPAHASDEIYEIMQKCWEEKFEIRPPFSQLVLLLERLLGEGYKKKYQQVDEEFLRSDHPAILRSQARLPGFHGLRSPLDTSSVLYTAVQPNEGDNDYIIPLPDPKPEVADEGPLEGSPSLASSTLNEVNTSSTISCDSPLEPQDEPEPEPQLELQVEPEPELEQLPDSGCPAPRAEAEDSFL

| antagonist for PDGF [2] | Substance | SMC migration from the media to the intima [1] [fold] | SMC proliferation in the media [1] |
| --- | --- | --- | --- |
|  | PDGF: 28-31 KD dimeric, highly basic glycoprotein, potent mitogen for connective tissue cells | 20 | 2-3 fold |
| effective as an antagonist for PDGF | ANFLVW - - - EIVRKKP (also: N-terminal ANFLVW segment joined by an unspecified link (- - -)) [literature peptide of PDGF-B chain residues 35-40 and 78-83 [6]] |  |  |
